pIC50: −log10 of the molar value.
Key:
FGFR1 = biological target: T1, FGFR1 (Homo sapiens, UniProt P11362); assay: FRET-based in vitro kinase assay (Z'-LYTE); radiometric kinase panel gave […] inhibition at […]; assay type: biochemical
T1 construct: kinase domain

FGFR2 = FGFR2 (Homo sapiens, UniProt P21802); assay: in vitro kinase assay; radiometric kinase panel gave […] inhibition at […]; assay type: biochemical
FGFR2, sequence (P21802 22-821): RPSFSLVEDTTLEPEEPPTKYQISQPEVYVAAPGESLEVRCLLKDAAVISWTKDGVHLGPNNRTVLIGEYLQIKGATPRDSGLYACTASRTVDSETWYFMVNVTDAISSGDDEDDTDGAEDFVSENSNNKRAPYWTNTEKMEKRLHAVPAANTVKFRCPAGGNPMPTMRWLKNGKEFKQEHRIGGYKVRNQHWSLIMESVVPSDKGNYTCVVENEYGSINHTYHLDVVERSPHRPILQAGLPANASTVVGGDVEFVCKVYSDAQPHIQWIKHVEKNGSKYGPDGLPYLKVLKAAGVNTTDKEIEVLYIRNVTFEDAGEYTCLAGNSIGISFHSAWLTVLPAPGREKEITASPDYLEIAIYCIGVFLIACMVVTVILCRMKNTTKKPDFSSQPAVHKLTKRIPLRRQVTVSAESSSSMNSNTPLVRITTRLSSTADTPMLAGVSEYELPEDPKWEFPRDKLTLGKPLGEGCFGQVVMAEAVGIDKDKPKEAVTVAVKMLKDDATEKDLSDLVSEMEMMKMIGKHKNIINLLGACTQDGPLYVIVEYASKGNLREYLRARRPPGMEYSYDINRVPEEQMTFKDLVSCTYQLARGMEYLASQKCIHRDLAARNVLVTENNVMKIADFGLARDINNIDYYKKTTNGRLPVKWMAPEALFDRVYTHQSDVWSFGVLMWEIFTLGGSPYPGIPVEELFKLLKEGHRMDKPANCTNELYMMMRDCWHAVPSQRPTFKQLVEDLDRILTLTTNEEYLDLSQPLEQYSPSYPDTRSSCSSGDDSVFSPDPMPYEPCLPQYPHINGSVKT

T1 sequence (P11362 478-767 limits assumed): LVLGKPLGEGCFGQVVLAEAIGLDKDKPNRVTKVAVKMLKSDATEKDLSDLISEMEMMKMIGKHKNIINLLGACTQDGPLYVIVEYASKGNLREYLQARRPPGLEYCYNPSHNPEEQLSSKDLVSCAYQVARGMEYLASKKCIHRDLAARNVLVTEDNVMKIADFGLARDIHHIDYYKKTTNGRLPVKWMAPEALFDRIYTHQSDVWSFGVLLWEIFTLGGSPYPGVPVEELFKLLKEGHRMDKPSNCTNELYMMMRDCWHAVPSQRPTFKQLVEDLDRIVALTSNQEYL

SMILES: COc1cc(/C=C/C(=O)O)ccc1O [FA, 4-hydroxy-3-methoxycinnamic acid]
- pIC50 (FGFR1): ~5.42
- pIC50 (FGFR2): ~4.90
